The test deals with Alpha-1 adrenergic receptor (Sus scrofa). The test can be described thus: Displacement of [3H]-prazosin from alpha1-adrenergic receptor in pig cerebral cortex. On the technique in general: Loss of bound radioactivity is the signal in a displacement assay; it reports binding, not function.

Two compounds from BindingDB's records for doi:10.1016/j.bmcl.2013.09.026 (Friedrich-Alexander University, 2013) can be followed below.

The Ki is the equilibrium dissociation constant of an inhibitor or competing ligand from its target.

Structures are written as SMILES.

In turn, `COc1ccccc1N1CCN(Cc2cn(CCCCCCF)nn2)CC1` displayed an inhibitory constant (Ki) of 110 nM.
`COc1ccccc1N1CCN(Cc2cn(CCOCCOCCF)nn2)CC1` had an inhibitory constant (Ki) of 490 nM.
